Source: patent publication US5236955A, “Anti-fungal agent” (Washington University, priority 1992, dated 1993)

Legend:
HIV-1 = conditions: acutely infected human T lymphocyte cell line; cited from earlier work
C. neoformans lipids = assay: Incorporation of label into total cellular lipids; format: cell-based; conditions: 1 hr, 30° C.
Method: (§1) Cells were incubated with the indicated [^3 H]fatty acid (specific activity=30 Ci/mmol, 100 μCi/ml media) for 1 h at 30° C. After the organisms were pelleted and washed, spheroplasts were prepared and total lipids extracted. Tests were done on two separate occasions. The incorporation of label from each of the oxatetradecanoic acid analogs and from palmitate into total cellular lipids is expressed as a percentage of the total amount of label incorporated from [^3 H]myristate.
(§2) Analysis of the incorporation of exogenous fatty acids into cellular phospholipids and neutral lipids--Five ml cultures were labeled with each of the 5 tritiated fatty acids or with [9,10(n)^3 H]palmitate (30 Ci/mmol) at 30° C. for 60 min (S. cerevisiae and C. albicans) or for 75 min (C. neoformans) as described in the preceding paragraph. S. cerevisiae and C. albicans cells were then pelleted by centrifugation at 4000×g for 5 min. and washed first in water followed by a wash with 1M sorbitol. […]
(§3) Dried lipids were resuspended in 500 μl CHCl3 :MeOH(1:1). A 2 μl aliquot was counted in a scintillation counter to determine the extent of incorporation of label into cellular lipids. […]

C. albicans lipids = assay: Incorporation of label into total cellular lipids; format: cell-based; conditions: 1 hr, 30° C.
Method: as §1, §2, §3

S. cerevisiae = assay: Viability of S. cerevisiae; format: cell-based; conditions: Saccharomyces cerevisiae
Method: Oxatetradecanoic acids were added (final concentraton=25-500 μM) as a single dose to log phase cultures of C. alibcans grown in SAB at 30° C. (Panels A and B) and to log phase cultures of S. cerevisiae grown in YPD at 30° C. (Panels C and D). The results were compared to the number of viable organisms present in cultures treated with 0.1% EtOH alone. […] A single does of alphotericin B (final concentration=55 μM) was added to parallel cultures which served as positive controls. Assays were done in duplicate. Representative tests are shown.
Saccharomyces cerevisiae strain YM2061 (MATa ura3-52 his3Δ200 ade2-101 lys2-801 met LEU2::pRY181 can1; Flick and Johnston, Mol. Cell. Biol. 10, 4757-4769 (1990), Candida albicans strain B311 (obtained from the American Type Tissue Culture, Rockville, Md.), or Cryptococcus neoformans strain L210425 (a clinical isolate that is part of the permanent culture collection of the Mycology Laboratory, Barnes Hospital, St. Louis, Mo.) were grown overnight at 30 C. The S. cerevisiae strain was incubated in YPD medium (1% bacto-yeast extract, Gibco, Long Island, N.Y.), 2% bacto-peptone (Gibco), 2% dextrose). The C. albicans and C. neoformans strains were grown in Sabouraud's media (SAB; 2% (w/v) dextrose, 1% bacto-peptone). The following morning the cultures were diluted into fresh medium to the desired density at 600 nm (early log phase), and subsequently incubated in a rotary shaker at 30° C. until an A600 =0.5 (mid log phase) was achieved. The culture was then divided into 10 ml aliquots. A single 10 μl aliquot of a stock solution of fatty acid analog (prepared in various concentrations using absolute ethanol) was added to the culture so that the final concentration of the compound was 100-500 μM (T=0). Ten microliters of ethanol alone was added to one 10 ml culture which served as the negative control. Amphotericin B (AmB; in the form of Fungizone, Squibb) was added (final concentration=55 μM) to another culture which served as the positive control. At T=0 and 0.5-24 h after addition of fatty acid analog to the subcultures, an aliquot was removed for determining the density of the subculture at 600 nm. Cell viability was determined at each of these time points by (i) serially diluting the aliquot in 0.15M NaCl and counting cell number in a hemocytometer and (ii) plating 2-3 of the dilutions in triplicate onto plates of SAB/agar (C. albicans and C. neoformans) or YPD/agar (S. cerevisiae). These plates were subsequently incubated at 30° C. for 24-48 hr to allow for the growth of colonies. The data were expressed as the ratio of viable cells/ml in the fatty acid analog treated subculture to the number of viable cells/ml in the negative (ethanol) control culture.

With CCCCCCCCCCOCCC(=O)O [O4, 4-oxatetradecanoic acid] as the molecule, how does the HIV-1 replication (HIV-1) read?
Its HIV-1 replication is “inhibits HIV-1 replication”.

What about the “label incorporated into C. neoformans lipids, of the amount observed with [3H]myristate” value (C. neoformans lipids) of the same molecule?
The value was 27-28%.

And the “label incorporated into C. albicans lipids, of the amount observed with [3H]myristate” value (C. albicans lipids)?
The value was 27-28%.

What about the log reduction at 300 µM (S. cerevisiae; 300 μM, 2 hr after addition, read-out: reductions in the number of viable S. cerevisiae) of the same molecule?
Its log reduction at 300 µM is less than 0.699.

What about the log reduction at 500 µM (S. cerevisiae; 500 μM, read-out: reduction in the number of viable organisms (S. cerevisiae)) of the same molecule?
The log reduction at 500 µM was 1 to 2.
